Source: US10610520B2, “Heterocyclic compound” (Takeda Pharmaceutical Company Limited, priority 2016, dated 2020)

biological target: T1, His-hMAGL (recombinant polyhistidine tagged human MAGL protein) (Homo sapiens, UniProt Q99685); assay: Measurement of MAGL inhibitory activity (arachidonic acid production from 2-arachidonylglycerol, RapidFire-mass spectrometry); format: biochemical; settings: MAGL inhibitory rate, test compound 10 μM, 60 min preincubation, 2-arachidonylglycerol substrate
T1 construct: made in house; host or cells: E. coli BL21(DE3)
T1 sequence (Q99685 1-303): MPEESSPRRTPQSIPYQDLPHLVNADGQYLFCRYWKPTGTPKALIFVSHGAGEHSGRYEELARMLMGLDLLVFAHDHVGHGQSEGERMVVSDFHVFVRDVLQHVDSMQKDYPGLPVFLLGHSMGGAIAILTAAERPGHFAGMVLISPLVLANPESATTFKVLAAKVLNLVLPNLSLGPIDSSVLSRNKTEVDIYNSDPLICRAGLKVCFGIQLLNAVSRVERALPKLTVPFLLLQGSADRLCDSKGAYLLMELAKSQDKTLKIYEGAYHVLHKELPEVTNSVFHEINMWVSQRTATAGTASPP
Protocol: The His-hMAGL obtained above was diluted with enzyme reaction buffer (10 mM Tris-HCl, pH 7.5, 1 mM EDTA, 0.025 (w/v) % Triton X-100, 0.01% Bovine serum albumin) to a concentration of 7.5 ng/mL. […] Thereafter, to each well was added 5 μL of 150 μM 2-arachidonylglycerol (Tocris Bioscience), and the mixture was incubated at room temperature for 10 min. Then, 10 μL of 2% formic acid (Wako Pure Chemical Industries, Ltd.) was added to stop the reaction. Furthermore, acetonitrile (50 μL) containing 3 μM arachidonic acid-d8 (Cayman Chemical Company) was added and the mixture was stirred.
The amount of arachidonic acid in the obtained enzyme reaction mixture was calculated by measuring by RapidFire-mass spectrometry and correcting by the amount of arachidonic acid-d8. High Throughput online solid phase extraction was performed using RapidFire 300™ system (Agilent Technologies, Inc.). Samples were loaded on SPE C4 cartridge (Agilent Technologies, Inc.) and desalted with 0.2 (v/v) % acetic acid (Wako Pure Chemical Industries, Ltd.) in ultrapure water/acetonitrile (70/30, v/v) at a flow rate of 1.5 mL/min, eluted at a flow rate of 0.5 mL/min with 0.2 (v/v) % acetic acid dissolved in acetonitrile/ultrapure water (90/10, v/v), and injected into the mass spectrometry part. The injection needle was washed with ultrapure water (500 millisecond) and acetonitrile (500 millisecond) to minimize carry-over. […] The RapidFire300 system was controlled by RapidFire UI software version 3.6 (Agilent Technologies, Inc.).
The mass spectrometry of the resultant product was performed using API4000™ triple quadrupole mass spectrometer (AB SCIEX) equipped with an electrospray ion sauce (TurboIon Spray™) in a negative selected reaction monitoring (SRM) mode. The conditions of SRM are shown below. The parameters of the instrument were optimized as follows: capillary temperature 600° C., ion spray voltage −4.5 kV, collision gas 8, curtain gas 15 psi, ion source gas 1 60 psi, ion source gas 2 60 psi. The mass spectrometer was controlled by Analyst™ software version 1.5.1 (AB SCIEX). The peak area integration was analyzed using RapidFire integrator software version 3.6 (Agilent Technologies, Inc.).
MAGL inhibitory rate (%) was calculated according to the following calculation formula. (1-(arachidonic acid production amount of test compound addition group−arachidonic acid production amount of enzyme-free group)÷(arachidonic acid production amount of test compound-free group−arachidonic acid production amount of enzyme-free group))×100

SMILES | inhibition at 10 µM [%]
O=C1CCC2(CN(C(=O)c3sc4cc(-c5cccc(F)c5)ccc4c3Cl)C2)N1 [Example 37, 2-((3-chloro-6-(3-fluorophenyl)-1-benzothiophen-2-yl)carbonyl)-2,5-diazaspiro[3.4]octan-6-one] | 99
O=C1CCC2(CN(C(=O)c3ccc(-c4cccc(OC(F)(F)F)c4)cc3)C2)N1 [Example 60, 2-((3′-(trifluoromethoxy)biphenyl-4-yl)carbonyl)-2,5-diazaspiro[3.4]octan-6-one] | 98
O=C1CCC2(CN(C(=O)N3CCC(Cc4ccc(N5CCCCC5)cc4)CC3)C2)N1 [Example 111, 2-((4-(4-(piperidin-1-yl)benzyl)piperidin-1-yl)carbonyl)-2,5-diazaspiro[3.4]octan-6-one] | 101
O=C1CCC2(CN(C(=O)c3sc4cc(OC(F)(F)F)ccc4c3C(F)F)C2)N1 [Example 265, 2-((3-(difluoromethyl)-6-(trifluoromethoxy)-1-benzothiophen-2-yl)carbonyl)-2,5-diazaspiro[3.4]octan-6-one] | 97
O=C1CCC2(CN(C(=O)c3sc4cc(-c5ccc(C6CC6)cc5)ccc4c3Cl)C2)N1 [Example 217, 2-((3-chloro-6-(4-cyclopropylphenyl)-1-benzothiophen-2-yl)carbonyl)-2,5-diazaspiro[3.4]octan-6-one] | 97
O=C1NC2(CCN(C(=O)c3sc4cc(Cl)cc(Cl)c4c3Cl)C2)CO1 (centres unmarked) [Example 325, 7-((3,4,6-trichloro-1-benzothiophen-2-yl)carbonyl)-3-oxa-1,7-diazaspiro[4.4]nonan-2-one] | 80

Other lines, results leading:

inhibition at 10 µM [%] | SMILES
100 | O=C1NC2(CO1)CN(C(=O)c1sc3cc(OC(F)(F)F)cc(C(F)F)c3c1Cl)C2 [Example 316, 2-((3-chloro-4-(difluoromethyl)-6-(trifluoromethoxy)-1-benzothiophen-2-yl)carbonyl)-7-oxa-2,5-diazaspiro[3.4]octan-6-one]
97 | O=C1CCC2(CN(C(=O)c3sc4cc(-c5cnc(C(F)(F)F)nc5)ccc4c3Cl)C2)N1 [Example 231, 2-((3-chloro-6-(2-(trifluoromethyl)pyrimidin-5-yl)-1-benzothiophen-2-yl)carbonyl)-2,5-diazaspiro[3.4]octan-6-one]
99 | O=C1CCC2(CN(C(=O)c3sc4ccc(OC(F)(F)F)cc4c3Cl)C2)N1 [Example 253, 2-((3-chloro-5-(trifluoromethoxy)-1-benzothiophen-2-yl)carbonyl)-2,5-diazaspiro[3.4]octan-6-one]
99 | O=C1CCC2(CN(C(=O)c3ccc(-c4cccc(C(F)(F)F)c4)c(OC(F)(F)F)c3)C2)N1 [Example 132, 2-((2-(trifluoromethoxy)-3′-(trifluoromethyl)biphenyl-4-yl)carbonyl)-2,5-diazaspiro[3.4]octan-6-one]
98 | O=C1CCC2(CN(C(=O)c3ccc(-c4cc(Cl)ccc4Cl)cc3)C2)N1 [Example 80, 2-((2′,5′-dichlorobiphenyl-4-yl)carbonyl)-2,5-diazaspiro[3.4]octan-6-one]
87 | O=C1CCC2(CN(C(=O)c3sc4cc(-c5ccc(C(F)(F)F)nc5)ccc4c3Cl)C2)N1 [Example 228, 2-((3-chloro-6-(6-(trifluoromethyl)pyridin-3-yl)-1-benzothiophen-2-yl)carbonyl)-2,5-diazaspiro[3.4]octan-6-one]
85 | O=C1CCC2(CN(C(=O)c3ccc(-c4ccc5sc(C(F)(F)F)nc5c4)cc3)C2)N1 [Example 65, 2-(4-(2-(trifluoromethyl)-1,3-benzothiazol-5-yl)benzoyl)-2,5-diazaspiro[3.4]octan-6-one]
96 | Cc1cc(C(F)(F)F)ccc1-c1ccc(C(=O)N2CC3(CCC(=O)N3)C2)cc1 [Example 92, 2-((2′-methyl-4′-(trifluoromethyl)biphenyl-4-yl)carbonyl)-2,5-diazaspiro[3.4]octan-6-one]
